Test results as given in patent US12122779B2, “Pyrrolo-pyridazine derivatives as muscarinic M1 receptor positive allosteric modulators” (SUVEN LIFE SCIENCES LIMITED, priority 2018, dated 2024).

Columns and labels:
[1] = Rodent brain penetration study; assay type: in vivo, Male Wistar rats; conditions: male, Wistar, brain and plasma, po; rat, 3 mg/kg p.o., brain-plasma ratio; read-out: Single dose Rat Brain Penetration (Cb/Cp) at 3 mg/kg, p.o.
Method: Rodent Brain Penetration Study
Male Wistar rats (260±40 grams) were used as experimental animals. Three animals were housed in each cage. Animals were given water and food ad libitum throughout the experiment and maintained on a 12 h light/dark cycle.
Brain penetration was determined in discrete manner in rats. One day prior to dosing day, male Wistar rats were acclimatized and randomly grouped according to their weight. At each time point (0.50, 1 and 2 h) n=3 animals were used.
The test compounds were suitably preformulated and administered orally at (free base equivalent) 3 mg/kg. Blood samples were removed via cardiac puncture by using isoflurane anesthesia. The animals were sacrificed to collect brain tissue. Plasma was separated and brain samples were homogenized and stored frozen at −20° C. until analysis. The concentrations of the test compounds in plasma and brain were determined using LC-MS/MS method.
The test compounds were quantified in plasma and brain homogenate by qualified LC-MS/MS method using suitable extraction technique. The test compounds were quantified in the calibration range of 1-500 ng/mL in plasma and brain homogenate. Study samples were analyzed using calibration samples in the batch and quality control samples spread across the batch. Extent of brain-plasma ratio (Cb/Cp) was calculated.

[2] = Rodent pharmacokinetic study; assay type: in vivo, Male Wistar rats; conditions: male, Wistar, plasma, rat
Method: Rodent Pharmacokinetic Study
Male Wistar rats (260±50 grams) were used as experimental animals. Animals were housed individually in polypropylene cage. Two days prior to study, male Wistar rats were anesthetized with isoflurane for surgical placement of jugular vein catheter. Rats were randomly divided for oral (3 mg/kg) and intravenous (1 mg/kg) dosing (n=3/group) and fasted overnight before oral dosing (p.o.). However, rats allocated to intravenous dosing food and water was provided ad libitum.
At pre-determined point, blood was collected through jugular vein and replenished with an equivalent volume of normal saline. Collected blood was transferred into a labeled eppendorf tube containing 10 μL of heparin as an anticoagulant. Typically blood samples were collected at following time points: 0.08, 0.25, 0.5, 1, 2, 4, 6, 8, and 24 h post dose. Blood was centrifuged at 4000 rpm for 10 minutes. Plasma was separated and stored frozen at −80° C. until analysis. The concentrations of the test compounds were quantified in plasma by qualified LC-MS/MS method using suitable extraction technique. The test compounds were quantified in the calibration range around 1-1000 ng/mL in plasma. Study samples were analyzed using calibration samples in the batch and quality control samples spread across the batch.
Pharmacokinetic parameters Cmax, AUCt, T1/2, Clearance and Bioavailability (F) were calculated by non-compartmental model using standard non-compartmental model by using Phoenix WinNonlin 6.0.4 version Software package.

Male Swiss mice = test: Effect on colonic transit; assay type: in vivo; conditions: doses of 1 and 3 mg/kg, p.o., carmine dye, 3 hours after dye
Method: Effect on Colonic Transit
Male Swiss mice of body weight ˜20-30 g were fasted for 16 hours with free access to water prior to the experiment. Mice were administrated example 1 or vehicle, 30 min after administration of 0.5 ml of carmine dye solution. Mice were sacrificed 3 hours after dye administration and the distance traveled by the dye from proximal colon was measured. Colonic transit was expressed as % colonic transit=100×(length of colon in which carmine moved/total length of colon).

[3] = molecular target: T1, recombinant human Muscarinic M1 receptor (Homo sapiens, UniProt P11229); test: Allosteric potency EC50 for muscarinic M1 receptor, CHO pCRE-Luc reporter cell-based assay with EC20 of acetylcholine; conditions: CHO cells, luciferase activity, in presence of EC20 of acetylcholine, 4 hours
T1 sequence (P11229 1-460): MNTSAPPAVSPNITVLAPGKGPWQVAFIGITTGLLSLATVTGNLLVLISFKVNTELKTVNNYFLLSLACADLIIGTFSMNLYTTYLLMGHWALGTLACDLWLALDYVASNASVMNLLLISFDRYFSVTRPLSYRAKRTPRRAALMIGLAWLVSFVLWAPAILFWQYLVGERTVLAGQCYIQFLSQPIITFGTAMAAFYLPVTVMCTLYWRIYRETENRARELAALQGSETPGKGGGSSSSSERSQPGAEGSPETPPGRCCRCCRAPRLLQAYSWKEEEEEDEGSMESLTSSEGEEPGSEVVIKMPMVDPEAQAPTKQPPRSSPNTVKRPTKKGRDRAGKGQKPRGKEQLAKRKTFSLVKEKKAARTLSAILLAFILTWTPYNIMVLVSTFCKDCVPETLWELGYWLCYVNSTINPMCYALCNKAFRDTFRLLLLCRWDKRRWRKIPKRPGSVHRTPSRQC
Method: Determination of Allosteric Potency EC50 Values for Muscarinic M1 Receptor
A stable CHO cell line expressing recombinant human Muscarinic M1 receptor and pCRE-Luc reporter system was used for cell-based assay. The assay offers a non-radioactive based approach to determine binding of a compound to GPCRs. In this specific assay, the level of intracellular cyclic AMP which is modulated by activation or inhibition of the receptor is measured. The recombinant cells harbor luciferase reporter gene under the control of cyclic AMP response element.
The above cells were grown in 96 well clear bottom white plates in Hams F12 medium containing 10% fetal bovine serum (FBS). Prior to the addition of compounds or standard agonist, cells were serum starved overnight. Increasing concentrations of test compounds were added along with EC20 of acetylcholine in OptiMEM medium to the cells. The incubation was continued at 37° C. in CO2 incubator for 4 hours. Medium was removed and cells were washed with phosphate buffered saline. The cells were lysed and luciferase activity was measured in a Luminometer. Luminescence units were plotted against the compound concentrations using Graphpad software.

Kp [1]: 0.15 ± 0.02
AUC(0-t) ([2]; intravenous (bolus), 1 mg/kg): 7240 ± 890 ng·h/mL
clearance ([2]; intravenous (bolus), 1 mg/kg): 2.31 ± 0.29 mL/min/kg
half-life ([2]; intravenous (bolus), 1 mg/kg): 3.42 ± 0.29 h
bioavailability ([2]; oral 3 mg/kg vs intravenous 1 mg/kg, read-out: F (%) Bioavailability): 60 ± 4%
AUC(0-t) ([2]; oral (gavage), 3 mg/kg): 13000 ± 954 ng·h/mL
Cmax ([2]; oral (gavage), 3 mg/kg): 1860 ± 185 ng/mL
half-life ([2]; oral (gavage), 3 mg/kg): 3.74 ± 0.15 h
EC50 [3]: 692 nM
SMILES: Cn1cc(-c2ccc(Cc3cc(C(=O)N[C@H]4CCOC[C@@H]4O)nn4cccc34)cc2)cn1 (stereo in doubt) [Example 38, N-[3-Hydroxy-tetrahydropyran-4-yl] 4-[4-(1-methyl-1H-pyrazol-4-yl)-benzyl]-pyrrolo[1,2-b]pyridazine-2-carboxamide]
Colonic transit (Male Swiss mice): increased the colonic transit
